# Experimental data from patent US8013153B2, “Substituted pyrimidine kinase inhibitors” (Janssen Pharmaceutica, N.V., priority 2006, dated 2011).
# Legend:
# [1] = test system: HeLa cervical adenocarcinoma; test: Inhibition of in vitro cell proliferation (HeLa); type: cell-based, human; conditions: Homo sapiens, 14C-thymidine incorporation;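 further: cells exposed to compound for 24 h, then labelled 24 h with methyl 14C-thymidine, with uptake into DNA counted by scintillation against DMSO-only control wells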
# [2] = test system: A431 human epidermoid carcinoma; test: In vivo inhibition of tumor growth, A431 model; parameters: species or system athymic nude mice; conditions: 10 mg/kg daily, oral
# Text: (§1) Female Nu/Nu˜nuBR athymic nude mice (obtained from Charles River Laboratories), at the age of 5-6 weeks were feed water and an irradiated standard rodent diet ad libitum, and housed in specific pathogen-free conditions, according to the guidelines of the American Association for Accreditation of Lab Animal Care (AALAC).
# Mice were implanted subcutaneously in the right hind flank with the various tumor cell suspensions in HBSS containing 10% FBS: A431 human epidermoid carcinoma (4×10^6 cells/mouse), HCT116 human colorectal carcinoma (4×10^6 cells/mouse) and A375 human skin melanoma (2×10^6 cells/mouse). […]
# (§2) The tumors were allowed to establish growth for 10 to 14 days. Tumor size was measured every 3 days. […]
# (§3) Tumor measurements and body weights were recorded individually (2×/week) during the treatment period of the experiment. Tumors were measured using a digital caliper. Data was recorded/calculated using Study Director software (StudyLog Systems, Inc.) and graphs were created in GraphPad Prizm.
# The volume of each tumor in an animal was calculated according to the formula: (D×d^2)/2, where the diameters were determined from two orthogonal measurements on each tumor. The mean tumor volume was determined by averaging all tumor volumes in each group. The mean body weight was determined by averaging all body weights in each group. […]
# A375 human skin melanoma = test: In vivo inhibition of tumor growth, A375 model; parameters: species or system athymic nude mice
# Text: as §1
# Mice were implanted subcutaneously in the right hind flank with the various tumor cell suspensions in HBSS containing 10% FBS: A431 human epidermoid carcinoma (4×10^6 cells/mouse), HCT116 human colorectal carcinoma (4×10^6 cells/mouse) and A375 human skin melanoma (2×10^6 cells/mouse).
# The A431 epidermoid carcinoma cell line was chosen due to its ability to secrete VEGF in culture and its dependency on VEGF for angiogenesis and growth in vivo (Viloria-Petit A, Crombet T, Jothy S, et al. (2001) Cancer Res 61: 5090-5101). The HCT116 colon carcinoma cell line is dependent on the expression of VEGF to form tumors in nude mice (Okada F, Rak J, St. Croix B, et al. (1998) Proc Natl Acad Sci USA 95: 3609-3614). […]
# In the A375 model, Compound 50 was administered at 100 mg/kg, qd. Treatment ended after 28 days, then tumor growth delay was analyzed to day 60.
# as §2, §3
# The volume of each tumor in an animal was calculated according to the formula: (D×d^2)/2, where the diameters were determined from two orthogonal measurements on each tumor. The mean tumor volume was determined by averaging all tumor volumes in each group. The mean body weight was determined by averaging all body weights in each group.
# The standard deviation was calculated according to the formula (where x was the tumor volume): [Σx^2−((Σx)2/n)]/n−1 […]
# tyrosine kinase KIT = tyrosine kinase KIT (Homo sapiens, UniProt P10721); test: KIT Kinase Screening Assay
# Chain of tyrosine kinase KIT (P10721 26-976): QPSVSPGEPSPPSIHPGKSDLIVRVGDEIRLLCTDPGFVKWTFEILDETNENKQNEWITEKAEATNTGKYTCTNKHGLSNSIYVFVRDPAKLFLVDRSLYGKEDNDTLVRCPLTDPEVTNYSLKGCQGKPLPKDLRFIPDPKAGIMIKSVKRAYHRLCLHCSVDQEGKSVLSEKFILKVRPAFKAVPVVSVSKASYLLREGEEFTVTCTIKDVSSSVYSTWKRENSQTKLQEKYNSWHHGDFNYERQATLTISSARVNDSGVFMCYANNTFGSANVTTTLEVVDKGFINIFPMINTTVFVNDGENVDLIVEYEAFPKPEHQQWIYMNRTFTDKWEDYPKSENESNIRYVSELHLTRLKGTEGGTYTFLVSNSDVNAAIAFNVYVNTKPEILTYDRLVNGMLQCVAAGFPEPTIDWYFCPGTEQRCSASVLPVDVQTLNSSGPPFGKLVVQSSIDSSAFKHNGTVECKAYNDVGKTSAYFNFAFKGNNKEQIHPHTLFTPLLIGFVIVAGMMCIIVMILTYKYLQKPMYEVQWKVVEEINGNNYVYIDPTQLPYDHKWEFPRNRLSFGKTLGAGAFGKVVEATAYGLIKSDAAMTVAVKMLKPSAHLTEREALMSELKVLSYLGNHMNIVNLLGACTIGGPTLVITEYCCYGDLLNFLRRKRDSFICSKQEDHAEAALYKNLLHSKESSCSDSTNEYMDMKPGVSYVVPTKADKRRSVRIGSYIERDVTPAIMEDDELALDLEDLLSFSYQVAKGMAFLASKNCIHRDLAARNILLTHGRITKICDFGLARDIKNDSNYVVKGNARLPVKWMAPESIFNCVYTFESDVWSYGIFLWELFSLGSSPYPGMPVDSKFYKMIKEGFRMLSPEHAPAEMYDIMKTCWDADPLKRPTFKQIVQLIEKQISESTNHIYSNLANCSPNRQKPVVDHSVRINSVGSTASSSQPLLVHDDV
smiles,measurement,setting,value
"CCNC(=O)Nc1ccc(Oc2ncnc(N)c2/C=N/OC)cc1Cl [Cpd 50, 1-{4-[6-amino-5-(methoxyimino-methyl)-pyrimidin-4-yloxy]-2-chloro-phenyl}-3-ethyl-urea]",IC50,[1],3.57 µM
same,inhibition of tumor growth,[2],< 50%
same,tumor growth delay maintained after completion of treatment,A375 human skin melanoma; 100 mg/kg qd for 28 days,3 weeks
same,body weights of treated animals,"A375 human skin melanoma; 28 days of continuous dosing, 100 mg/kg",comparable to the control group
same,inhibition of growth,"A375 human skin melanoma; daily doses of 100 mg/kg, oral, 28 days",90%
same,IC50,tyrosine kinase KIT,0.5 µM
